Experiment [1] deals with human pluripotent stem cells. Put plainly: HD-DoE stage 1, first 12-factor experiment: gene expression (qPCR) after 3-day treatment. It counts as cell-based. The note with it: for impact on expression of OTX2: dynamic profile / model; for factor contribution, expression of SIX3: model optimized for maximal SIX3. The text has this:
This example utilizes a method of High-Dimensional Design of Experiments (HD-DoE), as previously described in Bukys et al. (2020) […] 23:101346. The method employs computerized design geometries to simultaneously test multiple process inputs and offers mathematical modeling of a deep effector/response space. The method allows for finding combinatorial signaling inputs that control a complex process, such as during cell differentiation. It allows testing of multiple plausible critical process parameters, as such parameters impact output responses, such as gene expression. Because gene expression provides hallmark features of the phenotype of, for example, a human cell, the method can be applied to identify, and understand, which signaling pathways control cell fate. In the current example, the HD-DOE method was applied with the intent to find conditions for induction of […] neural progenitor-expressed genes, directly from the pluripotent stem cell state. To develop the recipe for each stage, the impact of agonists and antagonists of multiple signaling pathways (herein called effectors) on the expression of two sets of 53 pre-selected genes, after a 3-day treatment, has been tested and modeled. These effectors are small molecules or proteins that are commonly used during stepwise differentiation of stem cells to specific fates. Choice of the effectors were based on current literature on neural induction in forebrain region of developing brain and differentiation of stem cells to neural progenitors. To test the effectors, experiments with at least 8 factors were designed that can assess the response of cells to 48 or more different combinations of effectors in a range of concentrations. To analyze the models, we focused on expression of genes involved in development and patterning of the anterior neuroectoderm and forebrain including OTX2 (Hoch et al. (2015) Cell Reports 12:482-494), SIX3 (Lagutin et al. (2003) Genes & Development 17:368-379) and FEZF2 (Zhang et al. (2014) Development 141:4794-[…]). At later stages we focused on dorsoventral patterning of telencephalon and gene expressed in ventral forebrain including NKX2-1 and absence of PAX6 which is a dorsal forebrain marker (Stoykova et al. (2000) J. Neurosci. 20:8042-8050). The impact of each effector on gene expression level is defined by a parameter called factor contribution that is calculated for each effector during the modeling. To identify the recipe for stage 1 of differentiation, 96 different combinations of effectors generated using Design-of-Experiments compression through D-optimality were robotically prepared. The effector combinations were prepared in a basal media and were subsequently added to the cells, which were then allowed to differentiate. Three days later RNA extraction was performed, and gene expression was obtained using quantitative PCR analysis. The data were normalized and modeled using partial least squares regression analysis to the effector design, resulting in the generation of gene-specific models, which after model tuning for maximal Q2 predictive power, provided explanation of the effectors ability to control the expression of individual genes, combinatorically, and individually. Solutions within the tested space could then be explored to address desirability. Optimizing for maximal expression of SIX3 at 3300 and FEZF2 1355 expression values led to robust solutions. This model was derived from testing 12 effectors including AGN193109, LDN193189, CHIR99021, XAV939, IGF2, Purmorphamine, 4-oxo-RA, TTNPB, SR11237, FGF8, PD0325901 and […]. […] The model was also optimized for maximum expression of FEZF2 separately at 3576 expression value to find any additional factors that can boost expression of forebrain genes. […] To find the set of factors that have the potential to optimize all 3 genes in this experiment, a new assessment was done through dynamic profile analysis with focus on maximal expression of OTX2, FEZF2 and SIX3.

Experiment [2] relates to forebrain-committed neural stem cells. The experiment is described as follows: HD-DoE stage 2, 12-factor experiment: NKX2-1 expression. Type of experiment: cell-based, human. As to conditions: model / dynamic profile, in words. As for the experimental part: To further guide the differentiation of forebrain-committed neural stem cells to ventral forebrain neural stem cells at stage 2, a HD-DoE experiment was performed for 3 days after termination of stage 1 treatment. […] This 12-factor experiment included LDN193189, BMP7, PD0325901, MK2206, A8301, XAV939, CHIR99021, Purmorphamine, SANT-1, AGN193109, TTNPB and GSI-XX. […]

Experiment [3] concerns human pluripotent stem cells. The experiment is described as follows: HD-DoE stage 1, additional experiment: FEZF2 expression. It counts as cell-based. How it is done: To identify the recipe for stage 1 of differentiation, 96 different combinations of effectors generated using Design-of-Experiments compression through D-optimality were robotically prepared. The effector combinations were prepared in a basal media and were subsequently added to the cells, which were then allowed to differentiate. Three days later RNA extraction was performed, and gene expression was obtained using quantitative PCR analysis. The data were normalized and modeled using partial least squares regression analysis to the effector design, resulting in the generation of gene-specific models, which after model tuning for maximal Q2 predictive power, provided explanation of the effectors ability to control the expression of individual genes, combinatorically, and individually. Solutions within the tested space could then be explored to address desirability. To further enhance the conditions for forebrain differentiation from pluripotency, an additional HD-DoE experiment was performed. Additional gene regulatory models were obtained that were used for preparation of the differentiation protocol. The factors in this experiment included LDN193189, PD173074, BLU9931, Purmorphamine, SC79, MK2206, ZM336372, PD0325901, CHIR99021, XAV939, UCLA-GP130, Tofacitinib and GO6983. […] Dynamic profile analysis was also used to assess the interaction between the effectors.

Experiment [4] concerns human pluripotent stem cells. The experiment is described as follows: Factor criticality analysis, stage 1 recipe (dynamic profile analysis). It counts as cell-based. The note with it: other five stage 1 factors present, FIG. 11. The text has this: To assess the impact of the elimination of each validated factor, dynamic profile analysis was used and compared the expression level of genes of interest in absence of each finalized factor while others are present. […] When Purmorphamine was removed, levels of FEZF2 and SIX3 were decreased to 1000 and below 3000, while levels of OTX2 increased to 6500.

Experiment [5] has as its system forebrain-committed neural stem cells. Put plainly: Factor criticality analysis, stage 2 recipe. It counts as cell-based, human. The note with it: other three stage 2 factors present. How it is done: To assess the impact of the elimination of each validated factor, dynamic profile analysis was used and compared the expression level of genes of interest in absence of each finalized factor while others are present.
In the stage 2 recipe, each of the four finalized factors were removed while the other three factors remained present and expression levels of NKX2-1, PAX6 and NKX2-2 were assessed compared to presence of all four factors. Absence of PD0325901 reduced the levels of NKX2-1 and NKX2-2 while increasing PAX6 from 5000 to 3200, 100 to 0 and 0 to 5000, respectively. […] Removing XAV939 reduced the levels of NKX2-1 from 5000 to 3000, while increasing both PAX6 and NKX2-2 to 10000 and 200, respectively. Another observation was the interaction between XAV939 and Purmorphamine. In the absence of XAV939, the impact of Purmorphamine on NKX2-1 became negative and, as it is shown in interaction plot of FIG. 14, the level of NKX2-1 is higher when both factors are present.

Values joined by “and” are separate entries in the source; they are usually repeats but may differ in a detail not shown here. Identical values can stand only once. “Also recorded” adds a separate entry of the source.

In the case of `C/C(=C\c1ccc(C(=O)O)cc1)c1ccc2c(c1)C(C)(C)CCC2(C)C` [TTNPB], the “factor contribution, important input for high expression of SIX3” value in experiment [1] (FIG. 2 legend) stood at 23.7. Further, the “impact on expression of OTX2” value in experiment [1] (in words) is reported as “negative impact”. In addition, the “impact on expression of SIX3” value in experiment [1] (dynamic profile analysis, in words) is given as “negative impact”. Also, the “factor contribution, expression of SIX3” value in experiment [1] (negative effect) is 21. Moreover, the “factor contribution, expression of OTX2” value in experiment [1] (negative impact, model optimized for maximum OTX2) was 29 and 28.8. Besides, in experiment [1] (positive impact, model optimized for maximum FEZF2 at 3576), the “factor contribution, expression of FEZF2” value amounted to 24. For the same compound, the “impact on expression of NKX2-1” value in experiment [2] was “negative impact”.
Regarding `Oc1nc(-c2ccc(C(F)(F)F)cc2)nc2c1CSCC2` [XAV939], the “impact on expression of OTX2” value in experiment [1] (in words) was “positive impact”. The “factor contribution, expression of SIX3” value in experiment [1] (positive impact, 3-day treatment, qPCR) was 5. The “impact on expression of FEZF2” value in experiment [3] (dynamic profile, in words) is given as “positive impact”. In experiment [3] (positive impact, additional stage 1 experiment optimized for FEZF2), the “factor contribution, expression of FEZF2” value is given as 12. Besides, the “impact on expression of NKX2-1” value in experiment [2] is listed as “increase; also recorded: Positive impact”. For the same compound, the “expression level of FEZF2 when the factor is removed” value in experiment [4] (2000 with all six factors) is 1700. Also, in experiment [4] (3000 with all six factors), the “expression level of SIX3 when the factor is removed” value was 1000. Moreover, the “expression level of OTX2 when the factor is removed” value in experiment [4] (5500 with all six factors) is recorded as 5000. Besides, the “expression level of PAX6 when the factor is removed” value in experiment [5] (0 with all four factors) is 10000. In addition, the “expression level of NKX2-2 when the factor is removed” value in experiment [5] (100 with all four factors) stood at 200. Moreover, the “expression level of NKX2-1 when the factor is removed” value in experiment [5] (5000 with all four factors) stood at 3000.

The values above are taken from patent US20250092360A1, “METHODS AND COMPOSITIONS FOR GENERATING SOMATOSTATIN+ INTERNEURONS FROM HUMAN FOREBRAIN NEURAL PROGENITOR CELLS” (Trailhead Biosystems Inc., priority 2023, published 2025).
